In patent US9926302B2, “Heteroaryl substituted heterocyclyl sulfones” (priority 2014, dated 2018):

These molecules were tested against T1, Human CaV2.2 channels (Homo sapiens, UniProt Q00975) (assay: Fluorescence assay for CaV2.2 channels using potassium depolarization to induce channel opening (FLIPR, Fluo 4)). Conditions: 3 μM test compound; alternative assay buffer 30 mM KCl (inactivated channel state); HEK293 cells stably expressing human CaV2.2.
T1 construct: expressed in transfected cells
T1 sequence (P54289 947-1103): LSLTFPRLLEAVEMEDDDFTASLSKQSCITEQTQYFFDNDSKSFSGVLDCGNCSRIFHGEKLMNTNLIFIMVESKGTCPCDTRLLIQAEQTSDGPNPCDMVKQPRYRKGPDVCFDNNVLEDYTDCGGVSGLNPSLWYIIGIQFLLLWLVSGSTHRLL
T1 sequence (P54289 25-946): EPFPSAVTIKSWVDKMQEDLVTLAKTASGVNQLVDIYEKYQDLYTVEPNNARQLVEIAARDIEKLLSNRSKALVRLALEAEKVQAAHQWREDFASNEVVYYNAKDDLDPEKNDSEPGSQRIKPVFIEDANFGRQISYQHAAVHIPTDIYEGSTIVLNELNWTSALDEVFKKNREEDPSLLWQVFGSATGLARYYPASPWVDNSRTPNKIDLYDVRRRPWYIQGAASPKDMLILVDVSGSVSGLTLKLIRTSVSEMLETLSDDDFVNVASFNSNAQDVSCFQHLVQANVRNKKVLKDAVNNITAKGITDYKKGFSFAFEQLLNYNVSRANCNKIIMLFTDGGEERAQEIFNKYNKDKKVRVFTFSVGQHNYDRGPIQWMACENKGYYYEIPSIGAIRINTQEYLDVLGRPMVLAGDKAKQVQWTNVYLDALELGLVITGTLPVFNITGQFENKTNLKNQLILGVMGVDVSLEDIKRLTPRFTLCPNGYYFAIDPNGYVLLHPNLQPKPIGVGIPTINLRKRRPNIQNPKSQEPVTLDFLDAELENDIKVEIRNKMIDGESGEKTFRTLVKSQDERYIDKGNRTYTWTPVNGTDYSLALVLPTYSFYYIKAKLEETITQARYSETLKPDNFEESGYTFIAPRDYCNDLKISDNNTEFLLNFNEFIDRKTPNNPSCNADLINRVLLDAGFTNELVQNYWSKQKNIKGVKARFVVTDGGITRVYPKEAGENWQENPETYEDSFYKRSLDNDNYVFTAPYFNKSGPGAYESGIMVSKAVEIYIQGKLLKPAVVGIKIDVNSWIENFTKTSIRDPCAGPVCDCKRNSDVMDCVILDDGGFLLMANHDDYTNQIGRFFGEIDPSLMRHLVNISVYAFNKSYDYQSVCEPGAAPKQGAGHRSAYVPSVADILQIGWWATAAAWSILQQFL
T1 sequence (P54284 whole entry, further chain): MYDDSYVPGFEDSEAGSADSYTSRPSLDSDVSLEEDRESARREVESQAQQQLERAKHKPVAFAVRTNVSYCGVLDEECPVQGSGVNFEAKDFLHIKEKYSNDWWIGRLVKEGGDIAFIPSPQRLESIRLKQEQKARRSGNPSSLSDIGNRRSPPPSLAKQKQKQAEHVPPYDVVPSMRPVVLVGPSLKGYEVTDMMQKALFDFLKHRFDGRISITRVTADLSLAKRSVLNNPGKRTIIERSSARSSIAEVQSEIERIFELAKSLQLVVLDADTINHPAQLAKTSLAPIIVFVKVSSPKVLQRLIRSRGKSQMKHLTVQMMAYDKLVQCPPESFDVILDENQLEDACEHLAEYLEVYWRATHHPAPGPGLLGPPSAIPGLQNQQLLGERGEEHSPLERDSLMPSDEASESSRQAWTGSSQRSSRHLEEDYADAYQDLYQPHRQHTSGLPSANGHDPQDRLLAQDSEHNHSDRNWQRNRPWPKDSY
T1 sequence (Q00975 whole entry): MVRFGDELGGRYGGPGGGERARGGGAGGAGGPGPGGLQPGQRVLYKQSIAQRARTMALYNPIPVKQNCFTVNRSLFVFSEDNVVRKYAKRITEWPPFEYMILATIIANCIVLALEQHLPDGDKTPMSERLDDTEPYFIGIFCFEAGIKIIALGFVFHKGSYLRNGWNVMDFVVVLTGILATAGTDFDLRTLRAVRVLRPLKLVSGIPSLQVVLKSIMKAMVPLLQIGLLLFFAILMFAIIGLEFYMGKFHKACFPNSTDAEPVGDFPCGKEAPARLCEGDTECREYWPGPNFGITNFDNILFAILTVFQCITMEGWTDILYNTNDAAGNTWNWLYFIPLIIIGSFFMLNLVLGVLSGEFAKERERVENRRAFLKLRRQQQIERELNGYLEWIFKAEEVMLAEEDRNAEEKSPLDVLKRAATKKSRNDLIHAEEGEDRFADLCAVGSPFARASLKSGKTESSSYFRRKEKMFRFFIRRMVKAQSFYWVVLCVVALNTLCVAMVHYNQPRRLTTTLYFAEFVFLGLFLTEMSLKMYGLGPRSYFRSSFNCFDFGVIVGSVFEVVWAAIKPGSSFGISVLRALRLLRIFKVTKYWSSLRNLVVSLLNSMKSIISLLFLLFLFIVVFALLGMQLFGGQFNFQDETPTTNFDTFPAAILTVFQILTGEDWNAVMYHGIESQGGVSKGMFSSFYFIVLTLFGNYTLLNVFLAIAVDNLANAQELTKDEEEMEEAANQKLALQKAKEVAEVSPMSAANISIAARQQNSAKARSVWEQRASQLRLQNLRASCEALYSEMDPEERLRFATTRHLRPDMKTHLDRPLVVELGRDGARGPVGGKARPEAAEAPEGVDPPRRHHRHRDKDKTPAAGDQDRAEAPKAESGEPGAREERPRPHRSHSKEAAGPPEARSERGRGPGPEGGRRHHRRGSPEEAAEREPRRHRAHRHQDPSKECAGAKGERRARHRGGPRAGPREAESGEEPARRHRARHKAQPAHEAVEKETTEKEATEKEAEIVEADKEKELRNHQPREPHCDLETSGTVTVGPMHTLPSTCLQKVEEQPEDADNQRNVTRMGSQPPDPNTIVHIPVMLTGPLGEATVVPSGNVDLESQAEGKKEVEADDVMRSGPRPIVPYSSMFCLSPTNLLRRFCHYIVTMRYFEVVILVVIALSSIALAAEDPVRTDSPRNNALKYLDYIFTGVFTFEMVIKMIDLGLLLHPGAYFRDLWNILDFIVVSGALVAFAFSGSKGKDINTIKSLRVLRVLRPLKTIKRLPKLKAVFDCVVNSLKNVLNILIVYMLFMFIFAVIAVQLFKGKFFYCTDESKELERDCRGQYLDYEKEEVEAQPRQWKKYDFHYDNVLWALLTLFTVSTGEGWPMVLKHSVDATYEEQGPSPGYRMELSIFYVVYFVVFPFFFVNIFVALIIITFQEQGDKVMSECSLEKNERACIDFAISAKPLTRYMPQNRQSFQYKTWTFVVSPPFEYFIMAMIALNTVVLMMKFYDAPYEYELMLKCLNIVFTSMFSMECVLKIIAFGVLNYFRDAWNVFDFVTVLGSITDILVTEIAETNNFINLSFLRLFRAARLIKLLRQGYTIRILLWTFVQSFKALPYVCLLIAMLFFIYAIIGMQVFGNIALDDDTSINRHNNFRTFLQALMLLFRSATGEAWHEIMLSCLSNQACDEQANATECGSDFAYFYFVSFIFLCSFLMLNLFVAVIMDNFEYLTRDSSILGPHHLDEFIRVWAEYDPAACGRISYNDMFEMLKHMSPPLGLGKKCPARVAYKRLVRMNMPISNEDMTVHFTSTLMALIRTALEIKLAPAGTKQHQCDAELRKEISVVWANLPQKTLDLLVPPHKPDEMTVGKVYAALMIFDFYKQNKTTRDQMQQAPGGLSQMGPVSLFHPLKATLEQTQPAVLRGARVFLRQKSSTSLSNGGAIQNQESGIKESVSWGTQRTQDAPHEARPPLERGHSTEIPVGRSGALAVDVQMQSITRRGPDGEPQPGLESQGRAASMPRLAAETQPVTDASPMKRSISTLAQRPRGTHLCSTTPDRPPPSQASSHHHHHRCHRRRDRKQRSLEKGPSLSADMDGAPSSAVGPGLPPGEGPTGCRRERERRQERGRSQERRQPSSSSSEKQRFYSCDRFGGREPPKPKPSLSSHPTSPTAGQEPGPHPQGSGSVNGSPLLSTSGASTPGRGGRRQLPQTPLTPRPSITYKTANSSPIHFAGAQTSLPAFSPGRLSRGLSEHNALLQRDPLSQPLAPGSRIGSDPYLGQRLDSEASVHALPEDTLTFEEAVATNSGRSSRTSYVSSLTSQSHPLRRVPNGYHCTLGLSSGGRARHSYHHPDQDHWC
Format: cell-based
In short: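 HEK293 cells stably co-expressing CaV2.2 with alpha2-delta and beta subunits plus Kir2.3, loaded with 2 μM Fluo 4 and pre-incubated 15 min at 25° C with compound in 1 mM or 30 mM KCl buffer (pH 7.4; latter promotes inactivated state). Depolarized by KCl addition; peak fluorescence amplitude normalized to baseline gives inhibition.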

SMILES	Activity Category: %-Inhib (CaV2.2) @3 μM @30 mM KCl
CC1(S(=O)(=O)c2cccc(C(F)(F)F)c2)CCOC(c2nnc(C3CC3)o2)C1 (single isomer, unassigned) [SC-129, 2-Cyclopropyl-5-[4-methyl-4-[[3-(trifluoromethyl)phenyl]sulfonyl]-tetrahydro-pyran-2-yl]-[1,3,4]oxadiazole]	C (%-Inhibition >40% up to ≤75%)
C[S+]([O-])c1cc(C(F)(F)F)cnc1C1CC(C)(S(=O)(=O)c2cccc(C(F)(F)F)c2)CCO1 (stereo not shown) [SC-229, 3-(Methylsulfinyl)-2-[4-methyl-4-[[3-(trifluoromethyl)phenyl]sulfonyl]-tetrahydro-pyran-2-yl]-5-(trifluoromethyl)-pyridine]	B (%-Inhibition >75% up to ≤95%)
Cn1nc(C2CC2)cc1C1CC(C)(S(=O)(=O)c2cccc(C(F)(F)F)c2)CCO1 (stereo not shown) [SC-432, 3-Cyclopropyl-1-methyl-5-[4-methyl-4-[[3-(trifluoromethyl)phenyl]sulfonyl]-tetrahydro-pyran-2-yl]-1H-pyrazole]	A (%-Inhibition >95%)
CC1(S(=O)(=O)c2cccc(C(F)(F)F)c2)CCOC(c2ccc(C3CC3)nc2)C1 (stereo not shown) [SC-348, 2-Cyclopropyl-5-[4-methyl-4-[[3-(trifluoromethyl)phenyl]sulfonyl]-tetrahydro-pyran-2-yl]-pyridine]	A (%-Inhibition >95%)
CC1(S(=O)(=O)c2cc(F)cc(C(F)(F)F)c2)CCOC(c2ncc(S(C)(=O)=O)cc2Cl)C1 (stereo not shown) [SC-215, 3-Chloro-2-[4-[[3-fluoro-5-(trifluoromethyl)-phenyl]sulfonyl]-4-methyl-tetrahydro-pyran-2-yl]-5-methylsulfonyl-pyridine]	B (%-Inhibition >75% up to ≤95%)
CCC1(S(=O)(=O)c2cccc(C(F)(F)F)c2)CCOC(c2nnc(C(F)(F)F)o2)C1 (stereo not shown) [SC-240, 2-[4-Ethyl-4-[[3-(trifluoromethyl)phenyl]sulfonyl]-tetrahydro-pyran-2-yl]-5-(trifluoromethyl)-[1,3,4]oxadiazole]	C (%-Inhibition >40% up to ≤75%)
CC(C)c1cccc(S(=O)(=O)C2(C)CCOC(c3ncc(S(C)(=O)=O)cc3Cl)C2)c1 (stereo not shown) [SC-447, 3-Chloro-2-[4-[(3-isopropyl-phenyl)sulfonyl]-4-methyl-tetrahydro-pyran-2-yl]-5-methylsulfonyl-pyridine]	A (%-Inhibition >95%)
CC1(S(=O)(=O)c2cccc(OC(F)(F)F)c2)CCOC(c2ncc(S(C)(=O)=O)cc2Cl)C1 (stereo not shown) [SC-219, 3-Chloro-5-methylsulfonyl-2-[4-methyl-4-[[3-(trifluoromethyloxy)-phenyl]sulfonyl]-tetrahydro-pyran-2-yl]-pyridine]	A (%-Inhibition >95%)
CC1(S(=O)(=O)c2cccc(C(F)(F)F)c2)CCOC(c2nnc(C(F)F)o2)C1 (single isomer, unassigned) [SC-124, 2-(Difluoro-methyl)-5-[4-methyl-4-[[3-(trifluoromethyl)phenyl]sulfonyl]-tetrahydro-pyran-2-yl]-[1,3,4]oxadiazole]	C (%-Inhibition >40% up to ≤75%)
CC1(S(=O)(=O)c2cccc(C(F)(F)F)c2)CCOC(c2cnc(C(F)(F)F)nc2)C1 (stereo not shown) [SC-305, 5-[4-Methyl-4-[[3-(trifluoromethyl)phenyl]sulfonyl]-tetrahydro-pyran-2-yl]-2-(trifluoromethyl)-pyrimidine]	A (%-Inhibition >95%)
Cc1cc(S(C)(=O)=O)cnc1C1CC(C)(S(=O)(=O)c2cccc(OC(F)(F)F)c2)CCO1 (stereo not shown) [SC-449, 3-Methyl-5-methylsulfonyl-2-[4-methyl-4-[[3-(trifluoromethyloxy)-phenyl]sulfonyl]-tetrahydro-pyran-2-yl]-pyridine]	B (%-Inhibition >75% up to ≤95%)

Same assay, conditions: HEK293, 3 μM test compound; alternative assay buffer 30 mM KCl (inactivated channel state); HEK293 cells stably expressing human CaV2.2; read-out: Activity Category: %-Inhib (CaV2.2) @3 μM @30 mM KCl

SMILES	inhibition at 3 µM [%]
CCC1(S(=O)(=O)c2cccc(C(F)(F)F)c2)CCOC(c2cccnc2C)C1 (racemic) [SC-314, 3-[4-Ethyl-4-[[3-(trifluoromethyl)phenyl]sulfonyl]-tetrahydro-pyran-2-yl]-2-methyl-pyridine]	40 to 75
CC1(S(=O)(=O)c2cccc(C(F)(F)F)c2)CCOC(c2ccc(S(C)(=O)=O)cn2)C1 (stereo not shown) [SC-104, 5-Methylsulfonyl-2-[4-methyl-4-[[3-(trifluoromethyl)phenyl]sulfonyl]-tetrahydro-pyran-2-yl]-pyridine]	75 to 95
COc1cc(O)c(C2CC(C)(S(=O)(=O)c3cccc(C(F)(F)F)c3)CCO2)cn1 (stereo not shown) [SC-251, 2-Methoxy-5-[4-methyl-4-[[3-(trifluoromethyl)phenyl]sulfonyl]-tetrahydro-pyran-2-yl]-pyridin-4-ol]	40 to 75
COc1ncc(C2CC(C)(S(=O)(=O)c3cccc(C(F)(F)F)c3)CCO2)cn1 (stereo not shown) [SC-410, 2-Methoxy-5-[4-methyl-4-[[3-(trifluoromethyl)phenyl]sulfonyl]-tetrahydro-pyran-2-yl]-pyrimidine]	40 to 75
CC1(S(=O)(=O)c2cccc(C(F)(F)F)c2)CCOC(c2ccc(N3CCCC3)nc2)C1 (stereo not shown) [SC-400, 5-[4-Methyl-4-[[3-(trifluoromethyl)phenyl]sulfonyl]-tetrahydro-pyran-2-yl]-2-pyrrolidin-1-yl-pyridine]	> 95
CCC1(S(=O)(=O)c2cccc(C(F)(F)F)c2)CCOC(c2cccnc2C)C1 (stereo not shown) [SC-312, 3-[4-Ethyl-4-[[3-(trifluoromethyl)phenyl]sulfonyl]-tetrahydro-pyran-2-yl]-2-methyl-pyridine]	40 to 75
CC1(S(=O)(=O)c2cccc(C(F)(F)F)c2)CCOC(c2ncc(S(C)(=O)=O)cc2C(F)(F)F)C1 (stereo not shown) [SC-222, 5-Methylsulfonyl-2-[4-methyl-4-[[3-(trifluoromethyl)phenyl]sulfonyl]-tetrahydro-pyran-2-yl]-3-(trifluoromethyl)-pyridine]	75 to 95
COc1ccc(C2CC(C)(S(=O)(=O)c3cccc(C(F)(F)F)c3)CCO2)cn1 (stereo not shown) [SC-353, 2-Methoxy-5-[4-methyl-4-[[3-(trifluoromethyl)phenyl]sulfonyl]-tetrahydro-pyran-2-yl]-pyridine]	75 to 95
CC1(S(=O)(=O)c2cccc(C(F)(F)F)c2)CCOC(COc2ccc(C3CC3)nc2)C1 (single isomer, unassigned) [SC-118, 2-Cyclopropyl-5-[[4-methyl-4-[[3-(trifluoromethyl)phenyl]sulfonyl]-tetrahydro-pyran-2-yl]-methoxy]-pyridine]	> 95
C[S+]([O-])c1cc(C(F)(F)F)cnc1C1CC(C)(S(=O)(=O)c2cccc(C(F)(F)F)c2)CCO1 (stereo not shown) [SC-228, 3-(Methylsulfinyl)-2-[4-methyl-4-[[3-(trifluoromethyl)phenyl]sulfonyl]-tetrahydro-pyran-2-yl]-5-(trifluoromethyl)-pyridine]	> 95
CC1(S(=O)(=O)c2cccc(C(F)(F)F)c2)CCOC(c2ccc(-n3cncn3)nc2)C1 (racemic) [SC-407, 5-[4-Methyl-4-[[3-(trifluoromethyl)phenyl]sulfonyl]-tetrahydro-pyran-2-yl]-2-(1H-[1,2,4]triazol-1-yl)-pyridine]	75 to 95
CN(C)c1cnc(C2CC(C)(S(=O)(=O)c3cccc(C(F)(F)F)c3)CCO2)cn1 (stereo not shown) [SC-421, Dimethyl-[5-[4-methyl-4-[[3-(trifluoromethyl)phenyl]sulfonyl]-tetrahydro-pyran-2-yl]-pyrazin-2-yl]-amine]	75 to 95
COc1cc(OC)c(C2CC(C)(S(=O)(=O)c3cccc(C(F)(F)F)c3)CCO2)cn1 (racemic) [SC-247, 2,4-Dimethoxy-5-[4-methyl-4-[[3-(trifluoromethyl)phenyl]sulfonyl]-tetrahydro-pyran-2-yl]-pyridine]	75 to 95
CC1(S(=O)(=O)c2cccc(C(F)(F)F)c2)CCOC(c2cnc(C3CC3)cn2)C1 (stereo not shown) [SC-327, 2-Cyclopropyl-5-[4-methyl-4-[[3-(trifluoromethyl)phenyl]sulfonyl]-tetrahydro-pyran-2-yl]-pyrazine]	75 to 95
COc1cc(S(C)(=O)=O)cnc1C1CC(C)(S(=O)(=O)c2cccc(C(F)(F)F)c2)CCO1 (stereo not shown) [SC-224, 3-Methoxy-5-methylsulfonyl-2-[4-methyl-4-[[3-(trifluoromethyl)phenyl]sulfonyl]-tetrahydro-pyran-2-yl]-pyridine]	75 to 95
CC1(S(=O)(=O)c2cccc(C(F)(F)F)c2)CCOC(c2ncc(OC(F)F)cc2S(C)(=O)=O)C1 (stereo not shown) [SC-266, 5-(difluoromethoxy)-2-(4-methyl-4-((3-(trifluoromethyl)phenyl)sulfonyl)tetrahydro-2H-pyran-2-yl)-3-(methylsulfonyl)pyridine]	> 95
CC1(S(=O)(=O)c2cccc(C(F)(F)F)c2)CCOC(c2ncc(S(C)(=O)=O)cc2OC(F)F)C1 (stereo not shown) [SC-268, 3-(difluoromethoxy)-2-(4-methyl-4-((3-(trifluoromethyl)phenyl)sulfonyl)tetrahydro-2H-pyran-2-yl)-5-(methylsulfonyl)pyridine]	75 to 95
CC1(S(=O)(=O)c2cccc(C(F)F)c2)CCOC(c2ncc(C(F)(F)F)cc2S(C)(=O)=O)C1 (stereo not shown) [SC-212, 2-[4-[[3-(Difluoro-methyl)-phenyl]sulfonyl]-4-methyl-tetrahydro-pyran-2-yl]-3-methylsulfonyl-5-(trifluoromethyl)-pyridine]	75 to 95
Cc1cc(S(C)(=O)=O)cnc1C1CC(C)(S(=O)(=O)c2cccc(C(F)(F)F)c2)CCO1 (stereo not shown) [SC-262, 3-Methyl-5-methylsulfonyl-2-[4-methyl-4-[[3-(trifluoromethyl)phenyl]sulfonyl]-tetrahydro-pyran-2-yl]-pyridine]	75 to 95
CC1(S(=O)(=O)c2cccc(C(F)(F)F)c2)CCOC(c2ccc(OC(F)F)nc2)C1 (racemic) [SC-417, 2-(Difluoro-methoxy)-5-[4-methyl-4-[[3-(trifluoromethyl)phenyl]sulfonyl]-tetrahydro-pyran-2-yl]-pyridine]	> 95
